Data taken from PubChem BioAssay (NCI).
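48-hour exposure; five concentrations; linearly interpolated endpoints. TGI: concentration producing complete growth inhibition.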

Key:
Experiment in all cases: inhibition of tumour cell growth, NCI panel, 48 h
COLO 205 colon = tested on: COLO 205 colon
HL-60(TB) leukemia = tested on: HL-60(TB) leukemia
HOP-62 NSCLC = tested on: HOP-62 NSCLC
HCC-2998 colon = tested on: HCC-2998 colon
M14 melanoma = tested on: M14 melanoma
OVCAR-5 ovarian = tested on: OVCAR-5 ovarian
SK-MEL-2 melanoma = tested on: SK-MEL-2 melanoma
KM12 colon = tested on: KM12 colon
SK-MEL-5 melanoma = tested on: SK-MEL-5 melanoma
MALME-3M melanoma = tested on: MALME-3M melanoma
OVCAR-8 ovarian = tested on: OVCAR-8 ovarian
SW-620 colon = tested on: SW-620 colon
MOLT-4 leukemia = tested on: MOLT-4 leukemia

Structure (SMILES) | TGI (COLO 205 colon) | TGI (HL-60(TB) leukemia) | TGI (HOP-62 NSCLC) | TGI (HCC-2998 colon) | TGI (M14 melanoma) | TGI (OVCAR-5 ovarian) | TGI (SK-MEL-2 melanoma) | TGI (KM12 colon) | TGI (SK-MEL-5 melanoma) | TGI (MALME-3M melanoma) | TGI (OVCAR-8 ovarian) | TGI (SW-620 colon) | TGI (MOLT-4 leukemia)
COc1cc2c(cc1OC)C(=O)N(NC1=NCCN1)C2=O | > 100 µM | > 100 µM | > 100 µM | > 100 µM | > 100 µM | > 100 µM | > 100 µM | > 100 µM | > 100 µM | > 100 µM | > 100 µM | > 100 µM | > 100 µM
COC(=O)c1ccc(NCc2cc(O)ccc2O)cc1 | 29 µM | 8.58 µM | 30.9 µM | 29.5 µM | 39.5 µM | 29.1 µM | 36.1 µM | 29.6 µM | 23.7 µM | 15.7 µM | 40.1 µM | 23.4 µM | 31.5 µM
O=C(CC1C(=O)c2ccccc2C1=C1C(=O)c2ccccc2C1=O)c1ccccc1 (stereo not drawn) | > 100 µM | > 100 µM | > 100 µM | > 100 µM | > 100 µM | > 100 µM | > 100 µM | > 100 µM | > 100 µM | > 100 µM | > 100 µM | > 100 µM | > 100 µM
O=C1c2ccccc2C(=O)c2oc(Br)cc21 | 3.47 µM | 1.17 µM | 4.05 µM | 3.27 µM | 0.311 µM | 3.16 µM | 1.73 µM | 3.2 µM | 0.284 µM | 0.274 µM | 2.92 µM | 1.09 µM | 4.27 µM
CC[C@@H]1/C=C/C=C/C[C@H](C)[C@@H](O)[C@](C)(O)C(=O)[C@H](C)[C@@H](O)[C@H](C)C(=O)[C@H](C)[C@@H](O)[C@H](C)/C=C/C(=O)O[C@H]2[C@@H](C)[C@@H](CC1)O[C@@]1(CC[C@@H](C)[C@@H](CC(C)O)O1)[C@@H]2C (stereo partly drawn) | 1.99 µM | 4.25 µM | 5.47 µM | 6.68 µM | 6.52 µM | 7.38 µM | 8.4 µM | 11.7 µM | 1.7 µM | 15.6 µM | 8.85 µM | > 42 µM | 6.26 µM
O=c1[nH]n(Cc2ccccc2Cl)c2ccccc12 | > 100 µM | > 100 µM | > 100 µM | > 100 µM | > 100 µM | > 100 µM | > 100 µM | > 100 µM | > 100 µM | > 100 µM | > 100 µM | > 100 µM | > 100 µM
O=c1oc2ccc([N+](=O)[O-])cc2c(Nc2ccc3c(c2)S(=O)(=O)c2ccccc2O3)c1[N+](=O)[O-] | > 100 µM | > 100 µM | > 100 µM | > 100 µM | > 100 µM | > 100 µM | > 100 µM | > 100 µM | > 100 µM | > 100 µM | > 100 µM | > 100 µM | > 100 µM
CC(C)C(NC(=O)C(Cc1ccccc1)NC(=O)[C@H]1CCC[C@H]1NC(=O)C(N)Cc1ccc(O)cc1)C(N)=O (stereo partly drawn) | > 100 µM | > 100 µM | > 100 µM | > 100 µM | > 100 µM | > 100 µM | > 100 µM | > 100 µM | > 100 µM | > 100 µM | > 100 µM | > 100 µM | > 100 µM
O=c1[nH]c2c(c(=O)[nH]1)SSC2 | 50.7 µM | 32.6 µM | 23.5 µM | 30.5 µM | 4.91 µM | 32.4 µM | 14.5 µM | 38.8 µM | 29.1 µM | 10.1 µM | 10.2 µM | 29.9 µM | 4.79 µM
CN(C)CC1CN=C(NC(=O)Nc2ccccc2)O1 (stereo not drawn) | > 100 µM | > 100 µM | > 100 µM | > 100 µM | > 100 µM | > 100 µM | > 100 µM | > 100 µM | > 100 µM | > 100 µM | > 100 µM | > 100 µM | > 100 µM
N#CC(C#N)=Cn1c(=S)[nH]c2ccccc21 | > 100 µM | > 100 µM | > 100 µM | > 100 µM | > 100 µM | > 100 µM | > 100 µM | > 100 µM | > 100 µM | > 100 µM | > 100 µM | > 100 µM | > 100 µM
CC1(C)[C@H]2Cc3cc(-c4cc5c(cn4)[C@@H]4C[C@H]([C@@H]5[C@@H]5c6cc(-c7cc8c(cn7)[C@@H]7C[C@H](C8)C7(C)C)ncc6[C@@H]6C[C@H]5C6(C)C)C4(C)C)ncc3[C@@H]1C2 | > 100 µM | > 100 µM | > 100 µM | > 100 µM | > 100 µM | > 100 µM | > 100 µM | > 100 µM | > 100 µM | > 100 µM | > 100 µM | > 100 µM | > 100 µM
O=C(/C=C(\O)c1ccccc1)c1cc(-c2ccccc2)n(-c2ccccc2)n1 | 37.4 µM | > 100 µM | 23.9 µM | > 100 µM | 55.7 µM | > 100 µM | > 100 µM | > 100 µM | 48.7 µM | 45.5 µM | 15.3 µM | > 100 µM | 4.51 µM
CC(=O)O[C@@H](C1C[C@@H](C)[C@H]2[C@@](O)(O1)[C@H](O)[C@@]1(C)C3=CC[C@H]4C(C)(C)[C@@H](OC5OCC(O)C(O)C5O)CC[C@@]45C[C@@]35CC[C@]21C)C(C)(C)O (stereo partly drawn) | 48.4 µM | 15.3 µM | 70.7 µM | 27.7 µM | > 100 µM | 56.6 µM | 36.9 µM | 58.1 µM | 32.7 µM | 51 µM | > 100 µM | > 100 µM | 44.8 µM
S=C1N=C(Cl)/C(=C\c2ccccc2)N1 | > 100 µM | > 100 µM | > 100 µM | > 100 µM | > 100 µM | > 100 µM | > 100 µM | > 100 µM | > 100 µM | > 100 µM | > 100 µM | > 100 µM | > 100 µM
COc1ccc(N2C(=O)CC(c3c[nH]c4ncccc34)C2=O)cc1 (stereo not drawn) | 36.5 µM | > 37.4 µM | > 100 µM | > 100 µM | 44.9 µM | > 100 µM | > 100 µM | > 100 µM | > 100 µM | 40.5 µM | 42.4 µM | 40.7 µM | > 41 µM
